Assay results taken from patent US10329309B2, “3-(3H-imidazo[4,5-B]pyridin-2-yl)-1H-pyrazolo[4,3-B]pyridines and therapeutic uses thereof” (Samumed, LLC, priority 2015, dated 2019).

Experiments:
Type in all cases: cell-based
[1] = system: Wnt activity (Sp5-Luc reporter, SW480 colon carcinoma cells); test: Screening assay for Wnt activity: Sp5-Luc reporter gene assay in SW480 cells; conditions: Homo sapiens, overnight incubation, 10-point dose-response from 10 μM
In short: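 Luminescence (BrightGlo) read after overnight 37 °C exposure of Sp5-Luc SW480 reporter cells, 4,000/well in 1% FBS, to compound dosed 1:3 over 10 points from 10 μM with 0.1% DMSO. Values normalized to DMSO-only cells, fitted with variable-slope four-parameter model; where EC50 exceeds 10 μM, % inhibition at 10 μM reported.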

SW480 colon cancer cells = test: Cell viability assay (CellTiter-Blue), four days; conditions: Homo sapiens, 96 h; for EC50: CellTiter-Blue cell viability; for inhibition at 10 µM: read-out: percent inhibition at 10 μM (given for EC50 of >10 μM)
In short: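 4-day exposure, 37 °C/5% CO2; ~2×10^3 SW480 cells/well; 8-pt 1:3 curve, 10–0.0045 μM, duplicates vs DMSO controls. Resazurin→resorufin fluorescence readout, ~3 h. EC50 by nonlinear fit; if >10 μM, % inhibition at 10 μM reported.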

[2] = system: primary human mesenchymal stem cells (hMSCs); test: Induction of chondrogenesis in primary human mesenchymal stem cells (nodule imaging, Rhodamine B/Nile Red); conditions: hMSC chondrogenesis; for Emax: TGF-β3 as positive control, read-out: Max. Activity as % TGF-β3 activity; for EC50: concentration required to induce 50% levels of chondrogenesis vs TGF-β3, read-out: Conc (nM) of 50% TGF-β3 activity
In short: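 hMSCs (passage 3–6) in incomplete chondrogenic induction medium were dosed at 2700–10 nM (96-well, 6-point) or 5000–2.2 nM (384-well, 8-point), 0.03% DMSO final, for 6 days at 37° C. Fixed nodules stained with Rhodamine B/Nile Red were imaged; nodule area normalized to DMSO wells gave EC50, maximum activity and dose at maximum, with TGF-β3 (10 ng/mL) as positive control.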

SMILES	EC50 [1] [nM]	EC50 (SW480 colon cancer cells) [nM]	EC50 [2] [nM]	Emax [2] [%]	inhibition at 10 µM (SW480 colon cancer cells) [%]
CC(C)Nc1cncc(-c2ccc3[nH]nc(-c4nc5c(-c6ccoc6)ccnc5[nH]4)c3n2)c1 [Compound 320, 5-(3-(7-(furan-3-yl)-3H-imidazo[4,5-b]pyridin-2-yl)-1H-pyrazolo[4,3-b]pyridin-5-yl)-N-isopropylpyridin-3-amine]	341	378	100	64	
O=C(Nc1cncc(-c2ccc3[nH]nc(-c4nc5c(-c6ccc(Cl)s6)ccnc5[nH]4)c3n2)c1)C1CCC1 [Compound 1056, N-(5-(3-(7-(5-chlorothiophen-2-yl)-3H-imidazo[4,5-b]pyridin-2-yl)-1H-pyrazolo [4,3-b]pyridin-5-yl)pyridin-3-yl)cyclobutanecarboxamide]	354	109	10	102	
CC(C)CC(=O)Nc1cncc(-c2ccc3[nH]nc(-c4nc5c(-c6ccc(Cl)s6)ccnc5[nH]4)c3n2)c1 [Compound 1037, N-(5-(3-(7-(5-chlorothiophen-2-yl)-3H-imidazo[4,5-b]pyridin-2-yl)-1H-pyrazolo [4,3-b]pyridin-5-yl)pyridin-3-yl)-3-methylbutanamide]	1490	110	10	67	
Fc1ccc(-c2ccnc3[nH]c(-c4n[nH]c5ccc(-c6cncc(CN7CCCC7)c6)nc45)nc23)cc1 [Compound 42, 3-(7-(4-fluorophenyl)-3H-imidazo[4,5-b]pyridin-2-yl)-5-(5-(pyrrolidin-1-ylmethyl)pyridin-3-yl)-1H-pyrazolo[4,3-b]pyridine]	3730	1080		17	
O=C(Nc1cncc(-c2ccc3[nH]nc(-c4nc5c(-c6ccc(F)cc6)ccnc5[nH]4)c3n2)c1)C1CCC1 [Compound 49, N-(5-(3-(7-(4-fluorophenyl)-3H-imidazo[4,5-b]pyridin-2-yl)-1H-pyrazolo [4,3-b]pyridin-5-yl)pyridin-3-yl)cyclobutanecarboxamide]	908	551	30	69	
Cc1ccc(-c2ccnc3[nH]c(-c4n[nH]c5ccc(-c6cncc(NC(=O)C(C)C)c6)nc45)nc23)s1 [Compound 401, N-(5-(3-(7-(5-methylthiophen-2-yl)-3H-imidazo[4,5-b]pyridin-2-yl)-1H-pyrazolo[4,3-b]pyridin-5-yl)pyridin-3-yl)isobutyramide]	565	270	1670	66	
NC1CN(c2cncc(-c3ccc4[nH]nc(-c5nc6c(-c7cccc(F)c7)ccnc6[nH]5)c4n3)n2)C1 [Compound 510, 1-(6-(3-(7-(3-fluorophenyl)-3H-imidazo[4,5-b]pyridin-2-yl)-1H-pyrazolo[4,3-b]pyridin-5-yl)pyrazin-2-yl)azetidin-3-amine]	3710	1600		46	
CCNCc1cncc(-c2ccc3[nH]nc(-c4nc5c(-c6ccoc6)ccnc5[nH]4)c3n2)c1 [Compound 314, N-((5-(3-(7-(furan-3-yl)-3H-imidazo[4,5-b]pyridin-2-yl)-1H-pyrazolo[4,3-b]pyridin-5-yl)pyridin-3-yl)methyl)ethanamine]	3830	2820		32	
Cc1ccncc1-c1ccc2[nH]nc(-c3nc4c(-c5cc(F)cc(CNS(C)(=O)=O)c5)ccnc4[nH]3)c2n1 [Compound 481, N-(3-fluoro-5-(2-(5-(4-methylpyridin-3-yl)-1H-pyrazolo[4,3-b]pyridin-3-yl)-3H-imidazo[4,5-b]pyridin-7-yl)benzyl)methanesulfonamide]	1250	5570		47	
Clc1ccc(-c2ccnc3[nH]c(-c4n[nH]c5ccc(-c6cncc(CN7CCCC7)c6)nc45)nc23)s1 [Compound 1049, 3-(7-(5-chlorothiophen-2-yl)-3H-imidazo[4,5-b]pyridin-2-yl)-5-(5-(pyrrolidin-1-ylmethyl)pyridin-3-yl)-1H-pyrazolo[4,3-b]pyridine]	7700	2750	10	74	
CN(C)Cc1cncc(-c2ccc3[nH]nc(-c4nc5c(-c6cccs6)ccnc5[nH]4)c3n2)c1 [Compound 349, N,N-dimethyl-1-(5-(3-(7-(thiophen-2-yl)-3H-imidazo[4,5-b]pyridin-2-yl)-1H-pyrazolo[4,3-b]pyridin-5-yl)pyridin-3-yl)methanamine]	3960	1160	30	108	
Cc1ncc(-c2ccc3[nH]nc(-c4nc5c(-c6cccc(F)c6)ccnc5[nH]4)c3n2)n1C [Compound 509, 5-(1,2-dimethyl-1H-imidazol-5-yl)-3-(7-(3-fluorophenyl)-3H-imidazo[4,5-b]pyridin-2-yl)-1H-pyrazolo[4,3-b]pyridine]	120	115	10	97	

Further lines, with some results ahead:

EC50 [1] [nM]	EC50 (SW480 colon cancer cells) [nM]	EC50 [2] [nM]	SMILES	Emax [2] [%]	inhibition at 10 µM (SW480 colon cancer cells) [%]
803	> 10000	10	CCCCC(=O)Nc1cncc(-c2ccc3[nH]nc(-c4nc5c(-c6ccoc6)ccnc5[nH]4)c3n2)c1 [Compound 327, N-(5-(3-(7-(furan-3-yl)-3H-imidazo[4,5-b]pyridin-2-yl)-1H-pyrazolo[4,3-b]pyridin-5-yl)pyridin-3-yl)pentanamide]	83	4.9
2840	1100		CN(C)CCOc1cncc(-c2ccc3[nH]nc(-c4nc5c(-c6cccc(F)c6)ccnc5[nH]4)c3n2)c1 [Compound 515, 2-((5-(3-(7-(3-fluorophenyl)-3H-imidazo[4,5-b]pyridin-2-yl)-1H-pyrazolo[4,3-b]pyridin-5-yl)pyridin-3-yl)oxy)-N,N-dimethylethan-1-amine]	45	
929	540	10	CN(C)c1cncc(-c2ccc3[nH]nc(-c4nc5c(-c6cccc(F)c6)ccnc5[nH]4)c3n2)c1 [Compound 7, 5-(3-(7-(3-fluorophenyl)-3H-imidazo[4,5-b]pyridin-2-yl)-1H-pyrazolo[4,3-b]pyridin-5-yl)-N,N-dimethylpyridin-3-amine]	84	
495	400	21	CC(C)CC(=O)Nc1cncc(-c2ccc3[nH]nc(-c4nc5c(-c6cccc(F)c6)ccnc5[nH]4)c3n2)c1 [Compound 2, N-(5-(3-(7-(3-fluorophenyl)-3H-imidazo[4,5-b]pyridin-2-yl)-1H-pyrazolo [4,3-b]pyridin-5-yl)pyridin-3-yl)-3-methylbutanamide]	56	
2880	1130		CN(C)Cc1cncc(-c2ccc3[nH]nc(-c4nc5c(-c6cccc(F)c6)ccnc5[nH]4)c3n2)c1 [Compound 13, 1-(5-(3-(7-(3-fluorophenyl)-3H-imidazo[4,5-b]pyridin-2-yl)-1H-pyrazolo [4,3-b]pyridin-5-yl)pyridin-3-yl)-N,N-dimethylmethanamine]	29	
4360	> 10000	7	CN(C)CC(=O)Nc1cncc(-c2ccc3[nH]nc(-c4nc5c(-c6cccc(F)c6)ccnc5[nH]4)c3n2)c1 [Compound 969, 2-(dimethylamino)-N-(5-(3-(7-(3-fluorophenyl)-3H-imidazo[4,5-b]pyridin-2-yl)-1H-pyrazolo[4,3-b]pyridin-5-yl)pyridin-3-yl)acetamide]	72	27.7
